The MIC is the least concentration at which growth counts as inhibited.

The subject of assay [1] is isogenic E. coli strains expressing PDC R2-loop deletion variants (PDC-88 to PDC-92). Put plainly: MIC changes across the five isogenic E. coli R2-loop deletion strains. In kind it is cell-based, Escherichia coli. As to conditions: inhibitor at constant 4 µg/mL; R2-loop deletion variant strains. On the procedure: (§1) Modal broth microdilution MICs (or median broth microdilution MICs where appropriate) were determined in accordance with Clinical and Laboratory Standards Institute (CLSI) M07 guidelines ([43]). Isogenic E. coli DH10B cells expressing the abovementioned plasmid-encoded PDC constructs were used. […] CLSI quality control strains Escherichia coli NCTC 13353, E. coli ATCC 35218, and Klebsiella pneumoniae ATCC 700603 were used during testing ([24]).

The target of assay [2] is T1, PDC-88 (Pseudomonas aeruginosa, UniProt P24735, DEL316-317/G27D/G391A/T105A/V205L/V356I).
T1 construct: NdeI 5′-[…]-3ʹ and BamHI 5ʹ-[…]-3ʹ; His tag removed) (N); made in house; host or cells: E. coli BL21-CodonPlus (DE3)-RP, pET24a(+)
Kind of assay: Timed ESI-MS of acyl-enzyme formation, PDC-88. In kind it is biochemical. The conditions noted are these: for acyl-enzyme complex formation and deacylation: timed ESI-MS, 1 to 30 min (ATM to 60 min). On the procedure:
(§2) Timed ESI-MS experiments allow tracking of the reaction over time and determination of product modification, enabling the elucidation of mechanistic detail. Time courses were collected for both PDC-3 and PDC-88 with FEP (Fig. 4), CAZ (Fig. S1), TOL (Fig. S2), and ATM (Fig. S3). Substrate modification (here, loss of the R2 group) was determined based on differences between masses of apo and acyl-enzyme peaks (Fig. S4). […] Based on the differences in mass between the apo enzyme peaks, the acyl-enzyme peaks, and the molecular masses of each substrate, the mass of the adducts was determined and used to predict any portion of the substrate molecule that might be lost during the reaction (Fig. S4). As expected ([26][–][28]), all three cephalosporin antibiotics (FEP, CAZ, and TOL) lost their R2 groups during the reaction, while ATM (the sole monobactam) maintained its initial mass.
(§3) Five micrograms of PDC-3 or PDC-88 was incubated at the indicated molar ratio (1:2 to 1:100 PDC:β-lactam) in a total volume of 20 µL in 1× PBS at pH 7.4 at room temperature for the duration of the indicated time points. Reactions were quenched with the addition of 10 µL acetonitrile and added to 1 mL of 0.1% formic acid in water.
(§4) Data were collected using a Waters Synapt G2-Si quadrupole time-of-flight (Q-TOF) mass spectrometer and Waters Acquity UPLC BEH C18 1.7 µm column (2.1 by 100 mm). MassLynx V4.1 was used to deconvolute protein peaks. The tune settings for each sample were as follows: capillary voltage of 3.5 kV, sampling cone voltage of 35 V, source offset of 35 V, source temperature of 100°C, desolvation temperature of 500°C, cone gas flow rate of 100 L/h, desolvation gas flow rate of 800 L/h, and nebulizer bar at 6.0. Mobile phase A was 0.1% formic acid in water. Mobile phase B was 0.1% formic acid in acetonitrile. The mass accuracy of this system is ±5 Da.

A further assay has as its system NDM-1. Also on record: method as in PMID 22005056. As to conditions: cited from earlier work.
The next assay has as its target T2, PDC-3 (Pseudomonas aeruginosa, UniProt P24735, T105A).
T2 construct: The PDC-3 expression construct was created in a similar manner but starting with a previously described pBC SK(−) vector; made in house; host or cells: E. coli BL21-CodonPlus (DE3)-RP, pET24a(+)
Put plainly: Timed ESI-MS of acyl-enzyme formation, PDC-3. Format: biochemical. As to conditions: for acyl-enzyme complex formation and deacylation: timed ESI-MS, 1 to 30 min (ATM to 60 min). The method, then:
as §2, §3, §4

Assay [3] deals with K. pneumoniae ATCC 700603. Kind of assay: Broth microdilution MIC, CLSI quality control strain. Format: cell-based. The conditions noted are these: Klebsiella pneumoniae. On the procedure:
as §1

In assay [4] the test system is E. coli DH10B/pTU627 (PDC-90). Put plainly: Broth microdilution MIC, isogenic E. coli expressing PDC-90. In kind it is cell-based. The conditions noted are these: Escherichia coli. The method, then: (§5) Genetic constructs used for minimum inhibitory concentration (MIC) testing were designed by Venatorx Pharmaceuticals and codon-optimized for use in E. coli and synthesized by Twist Bioscience as described previously ([9]). […] DH10B cells expressing an empty pET24a(+) vector (Novagen) were also grown, and the plasmid purified. Both pCR4-TOPO-PDC-88 and empty pET24a(+) were cut with BamHI and NdeI, the digests run on low-melting point agarose gels, and the bands of interest excised and ligated to yield a PDC-88 expressing pET24a(+) construct with the His tag removed. The PDC-3 expression construct was created in a similar manner but starting with a previously described pBC SK(−) vector ([42]). The final plasmids were grown in E. coli DH10B cells and purified.
as §1
A general note: In broth dilution the organism is exposed to a series of concentrations in liquid medium.

Assay [5] deals with E. coli DH10B/pTU501 (vector). Kind of assay: Broth microdilution MIC, isogenic E. coli empty vector control. In kind it is cell-based. The conditions noted are these: Escherichia coli. On the procedure:
as §5, §1

The subject of assay [6] is E. coli DH10B/pTU628 (PDC-91). Kind of assay: Broth microdilution MIC, isogenic E. coli expressing PDC-91. In kind it is cell-based. As to conditions: Escherichia coli. On the procedure: as §5, §1
Assay [7] has as its system E. coli DH10B/pTU606 (PDC-1). Kind of assay: Broth microdilution MIC, isogenic E. coli expressing PDC-1. The conditions noted are these: Escherichia coli. Format: cell-based. On the procedure: as §5, §1
Assay [8] has as its system E. coli DH10B/pTU609 (PDC-3). Kind of assay: Broth microdilution MIC, isogenic E. coli expressing PDC-3. In kind it is cell-based. As to conditions: Escherichia coli. The method, then: as §5, §1
The test system of assay [9] is PDC-88. Put plainly: Spectrophotometric β-lactam hydrolysis (progress curves, steady-state kinetics) by PDC-88. As to conditions: over 900 s. In kind it is biochemical, Pseudomonas aeruginosa. The method, then: In order to determine the impact of the PDC-88 variant on hydrolysis, we determined hydrolysis progress curves for PDC-3, PDC-88, and a strongly hydrolyzing comparator (NDM-1 or PER-2) for cefepime (FEP, Fig. 3A), ceftazidime (CAZ, Fig. 3B), ceftolozane (TOL, Fig. 3C), and aztreonam (ATM, Fig. 3D).
β-Lactamase kinetic and inhibitor constants were determined using an Agilent 8453 UV-Visible Spectrophotometer to record progress curves and determine initial rates and other kinetic parameters as appropriate. Reactions were carried out in 1× phosphate-buffered saline (PBS) (pH 7.4) at room temperature in a 0.2 cm path-length quartz cuvette (Hellma Analytics). Reads were taken every 10 s to minimize UV-mediated background hydrolysis.
The extinction coefficients used were: nitrocefin, Δε482 = 17,400 M^−1 cm^−1, and cefepime, Δε260 = −10,000 M^−1 cm^−1.
The kinetic constants KM and Vmax were determined using a nonlinear least-squares regression of the data to the Henri-Michaelis-Menten equation (equation 1) in Origin Version 2020b (OriginLab, Northampton, MA), where v is the velocity of the reaction; Vmax is the theoretical maximum velocity; KM is the Michaelis constant; and [S] is the substrate concentration: […]

Assay [10] deals with E. coli DH10B/pTU625 (PDC-88). Kind of assay: Broth microdilution MIC, isogenic E. coli expressing PDC-88. As to conditions: Escherichia coli. In kind it is cell-based, Escherichia coli. The method, then: as §5, §1
Assay [11] deals with E. coli DH10B/pTU629 (PDC-92). Kind of assay: Broth microdilution MIC, isogenic E. coli expressing PDC-92. Format: cell-based. As to conditions: Escherichia coli. The method, then: as §5, §1
Assay [12] deals with E. coli DH10B/pTU626 (PDC-89). Put plainly: Broth microdilution MIC, isogenic E. coli expressing PDC-89. In kind it is cell-based. As to conditions: Escherichia coli. The method, then:
as §5, §1

[13] abbreviates: 60 min incubation, starting molar ratio 1:2.

Structures are written as SMILES. Values after ≈ are worked out from the molar mass of the structure shown. Where two headings read alike, the source gives them in different places.

In the case of `NC(=O)[C@@H]1CC[C@@H]2CN1C(=O)N2OS(=O)(=O)O` [AVI, avibactam], the “restoration of FEP activity / susceptibility by inhibitor” value in [1] is given as “restoring FEP activity in all cases”.

`C[C@H]1[C@H](NC(=O)/C(=N\OC(C)(C)C(=O)O)c2csc(N)n2)C(=O)N1S(=O)(=O)O` [ATM, aztreonam]: the “apo enzyme after incubation” value at PDC-88 [2] (setting [13]) is reported as “no apo enzyme present”; at PDC-3 (setting [13]), “less than 10%”. The “acyl-enzyme complex formation and deacylation” value at PDC-88 [2] and at PDC-3 was “quickly formed acyl-enzyme complexes” each time. In the assay on NDM-1, the “hydrolysis by NDM-1” value is listed as “does not hydrolyze”.

Regarding `CC(C)(O/N=C(\C(=O)N[C@@H]1C(=O)N2C(C(=O)[O-])=C(C[n+]3ccccc3)CS[C@H]12)c1csc(N)n1)C(=O)O` [CAZ, ceftazidime], the minimum inhibitory concentration (MIC) in assay [3] (ATCC700603, read-out: MIC CAZ AVI) was 1 µg/mL (≈ 1.83 µM); in [3] (ATCC700603, read-out: MIC CAZ Alone), 32 µg/mL (≈ 58.5 µM); in [4] (read-out: MIC CAZ AVI), 2 µg/mL (≈ 3.66 µM); in [4] (E. coli DH10B/pTU627 (PDC-90), read-out: MIC CAZ Alone) it was greater than 128 µg/mL; in assay [5] (read-out: MIC CAZ AVI), 0.5 µg/mL (≈ 0.915 µM); in [5] (read-out: MIC CAZ Alone), 0.5 µg/mL (≈ 0.915 µM). Also, the MIC in assay [6] (read-out: MIC CAZ AVI) is 1 µg/mL (≈ 1.83 µM); in assay [6] (E. coli DH10B/pTU628 (PDC-91), read-out: MIC CAZ Alone), 128 µg/mL (≈ 234 µM); in assay [7] (read-out: MIC CAZ AVI) it was 1 µg/mL (≈ 1.83 µM); in assay [7] (E. coli DH10B/pTU606 (PDC-1), read-out: MIC CAZ Alone), 64 µg/mL (≈ 117 µM); in [8] (read-out: MIC CAZ AVI) it was 1 µg/mL (≈ 1.83 µM); in assay [8] (E. coli DH10B/pTU609 (PDC-3), read-out: MIC CAZ Alone) it was 64 µg/mL (≈ 117 µM). Moreover, the MIC was 1 µg/mL (≈ 1.83 µM) in assay [10] (read-out: MIC CAZ AVI); 128 µg/mL (≈ 234 µM) in assay [10] (E. coli DH10B/pTU625 (PDC-88), read-out: MIC CAZ Alone); 1 µg/mL (≈ 1.83 µM) in assay [11] (read-out: MIC CAZ AVI); greater than 128 µg/mL in assay [11] (E. coli DH10B/pTU629 (PDC-92), read-out: MIC CAZ Alone); 1 µg/mL (≈ 1.83 µM) in assay [12] (read-out: MIC CAZ AVI); 128 µg/mL (≈ 234 µM) in assay [12] (E. coli DH10B/pTU626 (PDC-89), read-out: MIC CAZ Alone). The “acyl-enzyme complex formation and deacylation” value on PDC-88 [2] and on PDC-3 was “formed acyl-enzyme complexes with CAZ that deacylated slowly” throughout. The “difference between hydrolysis progress curves of PDC-3 and PDC-88” value in the assay with PDC-88 [9] is reported as “no appreciable difference”.
